These results are taken from patent US8771680B2, “Topical co-enzyme Q10 formulations and methods of use” (University of Miami, priority 2004, dated 2014).

The subject of data set [1] is breast adenocarcinoma cell line (MCF-7). Description: Proliferation of breast adenocarcinoma cell line MCF-7 in in vitro culture. The data set is classed as cell-based. Here is the method:
(§1) Retrieve Q10 stock from −20° C. storage and weigh out approximately 4.4 mg. Transfer Q10 into a 25 mL centrifuge tube. Add 1 mL 2-propanol to centrifuge tube. Vortex and dip in hot water bath (55° C.) to promote dissolution. Add 9 mL of media to centrifuge tube. Vortex and dip in hot water bath (55° C.) if necessary to create a homogenous solution. […] Make serial dilutions to treatment concentrations.
(§2) After subculture (per subculturing cells protocol described above), pipet the desired volume suspension of cells to count (0.25-1 mL) into Coulter Counter Vial (Beckman, Inc.) using an automatic pipette. Insure that the Beckman Coulter® Z1 Cell and Particle Counter is clean by using Coulter CLENZ (Beckman, Inc., Fullerton, Calif.) to flush. Flush apparatus once with Isoton II Diluent. Add Isoton II Diluent to vial containing cells for a total volume of 10 mL. Use output mode of apparatus to count cells twice to ensure accuracy. Average counts together and calculate total cell number per volume.
(§3) Acclimate reagents to 37° C. in water bath. Make stock solution of Q10 as per protocol described above for creating a homogenous solution of Q10 in media. Perform serial dilutions to desired concentrations. Place 2 mL media into respective wells. Subculture flasks as per protocol described above for subculturing cells. […]

Data set [2] relates to human osteosarcoma cell line (143B). Description: Proliferation of osteosarcoma cell line 143B in in vitro culture. The data set is classed as cell-based. Here is the method:
as §1, §2, §3

Data set [3] has as its system human breast adenocarcinoma cell line (MDA-MB-468). Description: Proliferation of breast adenocarcinoma cell line MDA-MB-468 in in vitro culture. The format is cell-based. How it is done:
as §1, §2, §3

The subject of another data set is normal cells (nFIB). Description: Apoptosis assay (Annexin-VPE) in normal cells. The format is cell-based, human. The conditions noted are these: culture of normal cells. How it is done:
(§4) Cell lines used in the assay were SK-Mel28 and nFIB. Cells (SK-Mel28 and nFIB) were seeded (5×10^4 cells/well) into wells containing either solely medium or medium with treatment and placed in an incubator at 37° C., 5% CO2, and under humidified conditions for 48 hours. Each condition was performed in duplicate and was subjected to the following protocol:
(§5) Apoptosis Analysis as Per Protocol of BD Pharmingen Annexin-VPE Protocol
(§6) Reagents include Annexin V-PE (BD Pharmingen, San Diego, Calif.), 7-AAD (BD Pharmingen, San Diego, Calif.), binding buffer (10×: 0.1 M Hepes/NaOH, 1.4 M NaCl, 25 mM CaCl2) [diluted to 1× (9 mL PBS and 1 mL binding buffer) for use in experiment] (BD Pharmingen, San Diego, Calif.), Trypsin-EDTA (Gibco, Grand Island, N.Y.), and desired Media.
(§7) Add 0.5 mL trypsin to each well, remove trypsin after approximately 10 seconds, and add 0.5 mL trypsin to each well. Place wells in an incubator, observe level of detachment under microscope after 4 minutes, and gently tap sides and bottom to aid in detachment. When cells detach, neutralize with 0.5 mL serum-supplemented medium. Transfer cell solution to centrifuge tubes, centrifuge cells at 2000 RPM for 5 minutes, aspirate supernatant, resuspend in 6 mL PBS, and split 6 mL into three centrifuge tubes (2 mL each). […]

The subject of data set [4] is human hepatocellular carcinoma cell line (Hep 3B). Nature of the data set: Proliferation of hepatocellular carcinoma cell line Hep 3B in in vitro culture. The data set is classed as cell-based. How it is done: as §1, §2, §3
For data set [5], the system named is human prostatic adenocarcinoma cell line (PC-3). Description: Proliferation of prostatic adenocarcinoma cell line PC-3 in in vitro culture. The data set is classed as cell-based. How it is done: as §1, §2, §3
The test system of another data set is squamous carcinoma cells. Nature of the data set: Proliferation of squamous carcinoma cells in in vitro culture. The format is cell-based. Conditions: 48 hour in vitro culture. Here is the method: as §1, §2, §3
Data set [6] has as its system human neonatal fibroblasts. Description: Proliferation of neonatal fibroblasts in in vitro culture. Conditions: 48 hour in vitro culture. The format is cell-based. Here is the method: as §1, §2, §3
Data set [7] concerns human breast adenocarcinoma cell line (BT-20). Description: Proliferation of breast adenocarcinoma cell line BT-20 in in vitro culture. The data set is classed as cell-based. How it is done: as §1, §2, §3
For data set [8], the system named is human melanoma cell line (SKMEL28). Description: Proliferation of melanoma cell line in in vitro culture (cell counting). The data set is classed as cell-based. Here is the method: as §1, §2, §3
Data set [9] deals with human prostatic adenocarcinoma cell line (PC-3). Description: Apoptosis analysis by JC-1 stain (mitochondrial polarization, flow cytometry). The data set is classed as cell-based. The conditions noted are these: PC-3 cells, 0.2 mM Q10, 24 h. How it is done:
FIG. 28 is a graph showing the effect of CoQ10 on mitochondrial polarization (an indicator of apoptosis) of a human prostatic adenocarcinoma cell line (PC-3) in a 24 hour in vitro culture. PC-3 cell cultures were treated with Q10 at 0.05, 0.1 and 0.2 mM concentrations for 24 h and then treated with JC-1, at 10 microgram/ml., for 30 min. Uptake and levels of green fluorescence was measured in a flow cytometer, FL1 (green fluor.).
Apoptosis was measured using a mitochondrial membrane dye JC-1, 5,5′,6,6′-tetrachloro-1,1′,3,3′-tetraethyl-benzimidazolylcarbocyanine chloride (Molecular Probe, Eugene, Oreg.). Treatments consisting of DMEM-F12 media supplemented with 1×PSA, 5% FBS and 0, 50, 100, and 200 μM concentrations of coenzyme Q10 were prepared in 60×15 mm tissue culture dishes (Costar-Cambride, Mass.). PC-3 cells were seeded at 500,000 cells per dish and incubated for 24 hours. The cells were trypsinized using 2 mL trypsin-EDTA and subjected to centrifugation at 2,500 rpm for 8 minutes. They were resuspended in 1 mL of Ham's F12 medium lacking serum and phenol red (Cascade Biologics, Inc-Portland, Oreg.) and promptly placed on ice. A 1 mg/ml stock solution of JC-1 was prepared using sterile DMSO and 10 μL was added to each cell suspension while gently vortexing. […] The samples were analyzed by flow cytometry for changes in uptake of fluorescent dye. […]

Another data set deals with SK-MEL28 tumors. Nature of the data set: Effect of topical formulation of Coenzyme Q10 on SK-MEL28 tumors in mice. The data set is classed as in vivo. Here is the method: Subculture flasks as per the cell subculturing protocol described above. After aspirating supernatant, combine pellets from each flask diluted slightly with PBS with a 5 mL pipette. Dilute final cell suspension to contain approximately ten million cells per 100 μL. Transfer cell suspension to micro-centrifuge tubes (2 mL). Place in ice immediately and leave in ice until injected. Anesthetize mice via an intraperitoneal injection with 0.3 cc Aventin. Inoculate each animal subcutaneously with 0.1 cc cell suspension per site. Transfer any remaining cells into a 15 mL centrifuge tube. Dilute to 10 mL with medium. Centrifuge at 2500 RPM for 8 minutes. Aspirate supernatant. Add 10 mL media to centrifuge tube. Create a homogenous cell suspension by pipetting and vortexing. Seed cells in a T75 flask to ensure experimental cell viability.
Melanoma tumors were induced in mice by SK-MEL28 injection into the subcutaneous layer. The animal study consisted of both a control and treatment group each containing four mice. The mice were inoculated with two tumors and the graph of FIG. 14 represents the resulting mean mass for the tumors in each mouse. A topical formulation of Coenzyme Q10 (A 1.0% and 1.5% formulation was tested) was applied to the tumors in the treatment group daily for a period of 30 days. After which, the tumors were excised and the mass was determined. […]

In data set [10] the test system is skin cancer cells (SK-Mel28). Description: Apoptosis assay (Annexin-VPE) in skin cancer cells. The conditions noted are these: culture of skin cancer cells. The data set is classed as cell-based, human. How it is done:
as §4, §5, §6, §7

For data set [11], the system named is human neonatal keratinocytes. Description: Proliferation of neonatal keratinocytes in in vitro culture. The data set is classed as cell-based. Conditions: 48 hour in vitro culture. Here is the method: as §1, §2, §3
For data set [12], the system named is human breast adenocarcinoma cell line (SK-BR-3). Description: Proliferation of breast adenocarcinoma cell line SK-BR-3 in in vitro culture. The data set is classed as cell-based. How it is done: as §1, §2, §3
For data set [13] the following is noted: of cancer patients having progressive disease before treatment; cited from earlier work.

For `COC1=C(OC)C(=O)C(C/C=C(\C)CC/C=C(\C)CC/C=C(\C)CC/C=C(\C)CC/C=C(\C)CC/C=C(\C)CC/C=C(\C)CC/C=C(\C)CC/C=C(\C)CCC=C(C)C)=C(C)C1=O` [CoQ10, Coenzyme Q10], the proliferation result is “reduces the proliferation” in data set [1] (MCF-7, 48 hour in vitro culture); “reduces the proliferation” in [1] (MCF-7, 72 hour in vitro culture); “reduces the proliferation” in data set [2] (48 hour in vitro culture); “reduces the proliferation” in data set [2] (72 hour in vitro culture); “reduces the proliferation” in data set [3] (MDA-MB-468, 48 hour in vitro culture); “reduces the proliferation” in data set [3] (MDA-MB-468, 72 hour in vitro culture). For the same compound, the proliferation entry in [4] (48 hour in vitro culture) is recorded as “reduces the proliferation”; in data set [4] (72 hour in vitro culture) it was “reduces the proliferation”; in data set [5] (PC-3, 48 hour in vitro culture) it was “reduces the proliferation”; in data set [5] (PC-3, 72 hour in vitro culture), “reduces the proliferation”; in the data set with squamous carcinoma cells, “reduces the proliferation”; in [6], “increases the proliferation”. In addition, the proliferation result in [7] (BT-20, 48 hour in vitro culture) is “reduces the proliferation”; in data set [7] (BT-20, 72 hour in vitro culture) it was “reduces the proliferation”; in data set [8] (SKMEL28, 36 hour in vitro culture), “reduces the proliferation”; in data set [8] (SKMEL28, 48 hour in vitro culture), “reduces the proliferation”; in [11] it was “increases the proliferation”; in data set [12] (SK-BR-3, 48 hour in vitro culture) it was “reduces the proliferation”. Further, in data set [12] (SK-BR-3, 72 hour in vitro culture), the proliferation entry is on record as “reduces the proliferation”. Besides, the rate of apoptosis entry was “but not normal cells” in the data set with normal cells (nFIB) and “increase the rate of apoptosis” in [10]. Moreover, in data set [9], the “green fluorescence of JC-1 (mitochondrial polarization, an indicator of apoptosis)” value is “significant increase”. Also, the “Average tumor mass decreased as compared to the control” value was determined as 52.3% in the data set with SK-MEL28 tumors (1.0% CoQ10 topically for 30 days) and 54.0% in the data set with SK-MEL28 tumors (1.5% CoQ10 topically for 30 days).

As to `NC(=O)c1nnn(Cc2cc(Cl)c(C(=O)c3ccc(Cl)cc3)c(Cl)c2)c1N` [CAI, carboxyamidotriazole], in data set [13], the disease stabilization is 49%.
